Measurements taken from patent publication US20080038386A1, “Use of a liquid cooling sensate to provide a pungent, warming or tingling sensate composition” (priority 2006, published 2008).

How the values were obtained:
[1] = Sensory panel: pungency enhancement of a hot chile pepper sauce; assay type: in vivo
Text: For this type evaluation, a panel consisting of both professional flavorists and other individuals with sensory testing experience was employed. In each tasting session two samples were presented to the panelists in a randomized order to avoid presentation order effect. Panelists were asked to rate the samples as same or different. If different, panelists were asked to rate the “pungent, hotness (warming) or tingling” intensity and to describe the flavor profile as compared to a control sample without the eutectic cooling mixture.
A commercial hot chile pepper sauce derived from Capsicum frutescens var. tabasco (Tabasco® brand) (whose primary pungent principles are the amides capsaicin and dihydrocapsaicin) was diluted to 5% strength in water (the control). […] The control sample was the 5% strength hot chile pepper sauce. […] The degree of hotness (warmth) and pungency profile enhancement was judged to be 25-35%.

[2] = 30 ppm in sucrose solution; cited from earlier work

SMILES	accompanying sensory effect noted by panelists ([1]; 28 ppm in 5% strength hot chile pepper sauce, especially in the back of the throat)	sensory balance accompanying the pungency enhancement ([1]; capsaicin containing products (summary statement))	sensory description [2]
CCNC(=O)C1CC(C)CCC1C(C)C (stereo not drawn) [WS-3, N-Ethyl-p-menthane-3-carboxamide]	unpleasant irritating-scratchy effect	unbalanced scratchy-irritating and distorted sensory impression	
C/C=C/C=C\CC/C=C/C(=O)NCC(C)C [spilanthol, 2E,6Z,8E-decatrienoic acid-N-isobutylamide]			tingling & mouth watering
